Patent US20080280837A1, “Biologically Active Compounds with Anti-Angiogenic Properties” (priority 2004, published 2008)
Values joined by “and” are separate entries in the source; they are usually repeats but may differ in a detail not shown here. Equal values may be shown once.

Experiments:
[1] = test system: chicken embryo chorioallantoic membrane (CAM) vasculature; assay: Early chicken embryo chorioallantoic membrane (earlyCAM) assay; type: in vivo; conditions: for Aretry length (pixels) / CAM increase (fold) / Relative artery length (absolute vessel length (pixels)/CAM area (pixels)) / Relative total vessel length (absolute vessel length (pixels)/CAM area (pixels)) / Relative vein length (absolute vessel length (pixels)/CAM area (pixels)) / Total vessel length (pixels) / Vein diameter (pixels) / Vein length (pixels): mean ± SEM, n = 8
Experimental: Vein diameter was included as a measure of vessel growth. Where there was more than one major vein branch, the diameters of both were added together to give a total vein diameter. In the control CAM there were two well developed vein branches of similar diameter. In contrast, in the treated CAM there was a single major vein branch. Total vein diameter is 239 pixels in the control CAM, and only 107 pixels in the treated CAM.
When “compound 1” was applied to the CAM, there were dose responsive reductions in CAM growth and vasculature. The effects on CAM growth and vessel parameters were expressed as pixel measures (Table 1) and also as a percentage of the vehicle treated control group (FIG. 1). Vein lengths were reduced at all dose levels of “compound 1”, both in pixel and percentage terms, with a reduction to 67% of control at 5 nmol (p<0.05). […] When artery and vein lengths were combined to give total vessel length there was a significant reduction at the 5 nmol level (FIG. 1; p<0.05). A strong trend to reduced CAM growth with increasing doses of “compound 1” was also present.

[2] = ActiveTox suite of toxicity assays (LDH release, proliferation, ATP content, caspase 3/7, cyp1A induction, P-glycoprotein inhibition, cyp3A induction via PXR or GR); type: cell-based; conditions: 10 and 100 μM, quadruplicate
Experimental: Compounds were analyzed in eight separate assays at concentrations of 10 and 100 μM in quadruplicate. Compounds were assayed tar toxicity via LDH release, inhibition of proliferation, ATP content, caspase 3/7 activation. Compounds were assayed for induction of cyp1A and P-glycoprotein inhibition. Compounds were also assayed for cyp3A induction under conditions which favor activation via the pregnane receptor (PXR) or the glucorticord receptor (GR). Appropriate positive and negative controls were included in each case.

SSTR-3 = biological target: T1, SSTR-3 (Homo sapiens, UniProt P32745); assay: Radioligand binding screen against somatostatin subtype SSTR-3
T1 construct: expressed in transfected cells
T1 sequence (P32745 whole entry): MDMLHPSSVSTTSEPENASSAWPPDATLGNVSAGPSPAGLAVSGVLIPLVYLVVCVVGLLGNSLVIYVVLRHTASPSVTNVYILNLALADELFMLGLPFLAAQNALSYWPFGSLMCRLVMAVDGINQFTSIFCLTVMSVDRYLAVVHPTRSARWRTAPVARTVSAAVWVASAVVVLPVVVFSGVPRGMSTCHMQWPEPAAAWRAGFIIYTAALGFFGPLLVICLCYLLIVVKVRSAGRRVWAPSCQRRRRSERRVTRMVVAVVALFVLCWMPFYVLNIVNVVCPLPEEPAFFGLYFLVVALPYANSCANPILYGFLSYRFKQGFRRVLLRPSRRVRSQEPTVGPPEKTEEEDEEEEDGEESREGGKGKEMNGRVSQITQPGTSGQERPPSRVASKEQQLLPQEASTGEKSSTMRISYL
Experimental: Receptor membrane preparations containing the desired cloned receptor (for example cloned human somatostatin receptor subtype 5, SSTR5) and radio-labeled ligand (for example 3-[^125I]iodotyrosyl^11 Somatostatin-14)) were diluted at the concentration required for testing and according to the specific parameters associated with the selected receptor-ligand combination, including receptor Bmax, ligand Kd and any other parameters necessary to optimize the experimental conditions. When tested for competition activity to the reference ligand, “compound 1” was mixed with membrane suspension and the radiolabeled reference ligand (with or without an excess of cold ligand to the receptor for determination of non-specific binding) and incubated at the temperature required by internal standard operating procedures. Following incubation, the binding reaction was stopped by the addition of ice-cold washing buffer and filtered on appropriate filters, which are then counted. Data analysis and curve-fitting was performed with XLfit (IDBS).
10 mM solutions of test compounds in 100% DMSO were prepared. ˜160 μl was used for each dilution (20 μl/well in triplicate).
A 1.25 mM assay stock was prepared by making a 1:8 dilution of the 10 mM solution. (To 30 μL of the 10 mM solution was added 210 μL milli-Q H2O. A 1:5 dilution series in milli-Q H2O was then prepared.
In primary screening experiments compounds were tested in duplicate for a particular concentration.

[3] = test system: MV522 human NSCLC tumour xenograft; assay: Nude mouse model of human MV522 non-small cell lung cancer tumours; type: in vivo, nude mice
Experimental: Initial Maximum Tolerated Dose (MTD) studies were done in male nude mice to determine the appropriate intravenous dosing regimen for the MV522 human NSCLC tumour model. A range of doses between 0 and 50 mg/Kg for 28 days (qdx28) were tested. Mice were randomized into groups with 5 animals per group including vehicle control. Animals were weighed twice weekly starting on day one and observed daily for adverse reactions or toxicity due to the agent. MTD studies determined the selection of 20 mg/kg and 35 mg/kg for intravenous dosing once per day for 28 days in the MV522 human NSCLC tumour xenograft model.
Male nude mice (nu/nu) between 5 and 6 weeks of age weighing approximately 20 g were implanted subcutaneously (s.c) by trocar with fragments of MV522 human tumour carcinomas harvested from s.c growing tumours in host mice. MV-522 is a metastatic human lung adenocarcinoma line. When tumours reached approximately 72 mg in size animals were pair matched into treatment and control groups with 10 mice in each group. Each mouse was tagged and followed individually throughout the experiment.
“Compound 1” was administered i.v. in a saline vehicle from day one. Vehicle control group animals were administered saline i.v. There were nine treatment groups including the vehicle control group. […]
At the end of the treatment period the mice were weighed and sacrificed. Each tumour was excised and weighed and a mean actual tumour weight (mg) per group was calculated along with the mean actual volume (mm^3). […] Mean tumour regression was determined using the formula [1−(mean actual tumour weightFINAL/mean tumour weightDAY 1)×100%].

COC[C@H]1O[C@H](OCCc2ccccc2)[C@H](NC(=O)CCCN)[C@@H](OCc2ccc3ccccc3c2)[C@@H]1O [Compound 1]
Aretry length (pixels) ([1]; 0.2 nmol): 1870 ± 109^ pixels | CAM increase (fold) ([1]; 0.2 nmol): 9.9 ± 0.9 fold | Relative artery length (absolute vessel length (pixels)/CAM area (pixels)) ([1]; 0.2 nmol): 43.0 ± 3.7 | Relative total vessel length (absolute vessel length (pixels)/CAM area (pixels)) ([1]; 0.2 nmol): 79.9 ± 5.8 | Relative vein length (absolute vessel length (pixels)/CAM area (pixels)) ([1]; 0.2 nmol): 36.9 ± 3.4 | Total vessel length (pixels) ([1]; 0.2 nmol): 3498 ± 222^ pixels | Vein diameter (pixels) ([1]; 0.2 nmol): 191 ± 10 pixels | Vein length (pixels) ([1]; 0.2 nmol): 1628 ± 183^ pixels | Artery length as percentage of vehicle treated control (maximal reduction) ([1]; 1 nmol): 86 % of control | Aretry length (pixels) ([1]; 1 nmol): 1544 ± 214^ pixels | CAM increase (fold) ([1]; 1 nmol): 9.9 ± 0.8 fold | Relative artery length (absolute vessel length (pixels)/CAM area (pixels)) ([1]; 1 nmol): 34.7 ± 4.7 | Relative total vessel length (absolute vessel length (pixels)/CAM area (pixels)) ([1]; 1 nmol): 71.3 ± 6.3 | Relative vein length (absolute vessel length (pixels)/CAM area (pixels)) ([1]; 1 nmol): 36.5 ± 2.4 | Total vessel length (pixels) ([1]; 1 nmol): 3169 ± 341^ pixels | Vein diameter (pixels) ([1]; 1 nmol): 187 ± 15 pixels | Vein length (pixels) ([1]; 1 nmol): 1625 ± 166^1 pixels | Reduction in vein diameter versus control ([1]; 5 nmol): approximately 25% | Aretry length (pixels) ([1]; 5 nmol): 1510 ± 196^ pixels | CAM increase (fold) ([1]; 5 nmol): 8.9 ± 0.8 fold | Relative artery length (absolute vessel length (pixels)/CAM area (pixels)) ([1]; 5 nmol): 36.4 ± 3.0 | Relative total vessel length (absolute vessel length (pixels)/CAM area (pixels)) ([1]; 5 nmol): 71.6 ± 3.7 | Relative vein length (absolute vessel length (pixels)/CAM area (pixels)) ([1]; 5 nmol): 35.1 ± 2.6 | Total vessel length (pixels) ([1]; 5 nmol): 2939 ± 292^1 pixels | Vein length (pixels) ([1]; 5 nmol): 1429 ± 141^1 pixels | Vein diameter (pixels) ([1]; 5 nmol, p = 0.057): 157 pixels and 157 ± 23 pixels | Vein length as percentage of vehicle treated control ([1]; 5 nmol, p<0.05): 67 % of control | Total vein diameter ([1]; single treated CAM (control CAM 239 pixels), dose not stated): 107 pixels | Effects in the eight ActiveTox assays [2]: no statistical effects | IC50 (SSTR-3; concentration required to displace 50% of the competitive radioligand, read-out: IC50 SSTR3): 8.5 µM | selectivity SSTR3 (SSTR-3; normalized IC50: lowest IC50 for a compound = 1): 26.4 | Hillslope SSTR3 (SSTR-3; slope of binding curve): 1.04 | Tumour growth inhibition (TGI) ([3]; group nine: 35 mg/kg compound 1 i.v. qdx28 and paclitaxel 16 mg/kg i.p. qdx5): 75.1% | Tumour growth inhibition (TGI) ([3]; group seven: 20 mg/kg compound 1 i.v. qdx28 and paclitaxel 16 mg/kg i.p. qdx5): 56.9%
